# Test results as given in patent US11919854B2, “P2RX7 modulators in therapy” (Centre national de la recherche scientifique, priority 2018, dated 2024).
# Assays:
# DSS-induced colitis = DSS-induced colitis mouse model; type: in vivo, C57BL/6J mice
# Procedure: (A) Body weight loss and (B) clinical scores from C57BL/6J treated with 3% DSS during 5 days (J1 to J5), followed by 10 days of normal tap water. The treated group received HEI2328 (ip, 2.3 mg/kg in PBS, 10% DMSO). Data are representative of 2 independent experiments (n=20). Mean±SEM are shown. *, p<0.05; **, p<0.01 (Mann-Whitney test).
# The inflammatory index was scored in a longitudinal (A) and a transversal section of the colon (B). Data are representative of 2 independent experiments (n=20). Mean±SEM are shown. *, p<0.05; **, p<0.01 (Mann-Whitney test).
# (A-D) Phenotypic analysis of immune cells in spleen of 20 mice treated with HEI2328 or non treated. Data are representative of 2 independent experiments (n=20). Mean±SEM are shown. *, p<0.05; **, p<0.01 (Mann-Whitney test).
# All mice received dextran sulfate sodium (3% DSS, TbS consultancy) ad libitum from day 1 to 5 and returned to normal tap water for the following 10 days. Control mice (n=20) were injected daily intraperitoneally with placebo (PBS/10% DMSO), whereas treated mice received 2.3 mg/kg HEI2328 in PBS/10% DMSO. The inventors used the following semi-quantitative clinical score:
# Body weight loss was scored as follows: 0, no loss; 1, loss <5%; 2, loss <10%; 3, loss <20%; and 4, loss >20%.
# The scores for stool consistency were measured as 0, normal; 1, loose stools; 2, watery diarrhea; or 3, severe watery diarrhea.
# Rectal bleeding was scored as 0, no blood; 1, presence of petechia; 2, stools with a trace of blood; or 3, bleeding.
# Inflammation score was performed by trained pathologists. Briefly, the severity of inflammation (none, mild, moderate, severe), extent of inflammation (none, mucosa, mucosa, and submucosa, transmural), crypt damage (none, basal to 1/3, basal to 2/3, crypt loss, crypts, and epithelium loss), and percentage of tissue affected by inflammation (0, 25, 50, 75, and 100%) were scored.
# B16F10 cells = experiment: B16F10 cell death (XTT absorbance); type: cell-based, mouse; conditions: 3 h treatment with BzATP and HEI3090
# Procedure: A. Large pore opening. Dot plot of representative experiment. Numbers highlighted the percentage of positive cells. […] B. representative curve of XTT absorbance over the time. […] Mean±SEM are shown. ***, p<0.001; ****, p<0.0001 Mann-Whitney test.
# Of interest, potentiation of large pore opening correlated with increased-B16F10 cell death, as illustrated in FIG. 9. Cells treated during 1 h with BzATP and HEI3090 incorporated 3-fold more Topro3 than cells treated with BzATP only (FIG. 9A). Longer incubation increased cell death, since it was observed up to 80% of dead cells after 3 h treatment (FIG. 9B).
# [1] = tested on: B16F10 or LLC (Lewis Lung Cancer) cells; experiment: Syngeneic tumor mice models, statements covering both B16F10 and LLC; type: in vivo, C57BL6 mice
# Procedure: 5×10^5 LLC or 5×10^5 B16F10 cells were injected sub cutaneously in the right flank of C57BL6 mice. Mice received HEI3090 (ip, 2.5 mg/kg in 10% DMSO/PBS) daily or placebo (10% DMSO/PBS). A,C. incidence of tumor appearance B,D. Tumor size (mm2) and tumor weight at sacrifice day (J12). E. HEI-treated tumors are more immunogenic. Expression of CMH1 (H2K^b/D^b) and PD-L1 by LLC (black) and B16F10 (grey) tumors is shown in dot plots. Numbers highlighted the percentage of tumor cells positive for H2K^b/D^b and PD-L1. […] F. CD-45 positive infiltrates is increased in LLC and B16F10 tumors. *, p<0.05; **, p<0.01; ***, p<0.001 Mann-Whitney test.
# 5×10^5 LLC or 5×10^5 B16F10 cells were injected sub cutaneously in the right flank of C57BL6 mice. Mice received HEI3090 (ip, 2.5 mg/kg in 10% DMSO/PBS) daily or placebo (10% DMSO/PBS). A. The quantity of immunosuppressive cells is reduced. Dot plot of representative experiment. Numbers highlighted the percentage of M-MDSC and PMN-MDSC. […] B. The quantity of effector T cells ([…], NK, CD4+) is increased.
# 4.2. By killing tumoral cells, HEI3090 may represent a new anti-tumor treatment. To test this hypothesis, immunocompetent C57B16J mice were subcutaneously injected with 5×10^5 B16F10 or 5×10^5 LLC (Lewis Lung Cancer) cells and treated daily with HEI3090 (ip, 2.5 mg/kg in 10% DMSO/PBS) or placebo (10% DMSO/PBS). […] In both tumor mice models, tumors weight in the treated group was reduced by 10-fold in the B16F10 model (8 mg vs 81 mg) and by 4-folds in the LLC model (80 mg vs 295 mg). Of interest, tumors from the HEI3090 treated group are more immunogenic than tumors from the placebo group.
Compound,clinical score (DSS-induced colitis; 2.3 mg/kg ip daily),recovery of original weight (DSS-induced colitis; 2.3 mg/kg ip daily),proportion of inflammatory monocytes in spleen (DSS-induced colitis; CD11b+CD11c−Ly6c+Ly6g−CD3−NK1.1−B220−),reduction of clinical signs compared with classical P2RX7 antagonists (literature) (DSS-induced colitis; comparison with published antagonist data),"inflammatory (histologic) index of colon (DSS-induced colitis; day 15, colon sections)","body weight loss (DSS-induced colitis; days 6 to 9, 2.3 mg/kg ip daily, 3% DSS days 1-5)",myeloid infiltrate in spleen (DSS-induced colitis; treated mice (28 in non treated)) [%],lymphoid population in spleen (DSS-induced colitis; treated mice (67 in non treated)) [%],Treg and Tγδ lymphocytes within lymphoid populations of spleen (DSS-induced colitis; treated vs non treated),proportion of conventional DC (cDC) and plasmacytoid DC (pDC) in spleen (DSS-induced colitis; treated vs non treated),dead cells (B16F10 cells),CD45 positive cells in tumors ([1]; HEI3090 ip 2.5 mg/kg daily),delay of tumor appearance ([1]; HEI3090 ip 2.5 mg/kg daily) [days],"ratio between effector cells (Tγδ, NK, CD4+) and total MDSC ([1]; HEI3090 ip 2.5 mg/kg daily)",tumor expression of PD-L1 vs placebo ([1]; HEI3090 ip 2.5 mg/kg daily) [fold],tumor expression of major complex histocompatibility 1 (MCH1) vs placebo ([1]; HEI3090 ip 2.5 mg/kg daily) [fold],tumor growth ([1]; HEI3090 ip 2.5 mg/kg daily),"tumor volume and tumor weight ([1]; HEI3090 ip 2.5 mg/kg daily, sacrifice day J12)",overall mice survival ([1]; therapeutically treated mice (increase from 22)) [days],immune cells within the spleen of treated mice ([1]; tumor bearing mice treated with HEI3090)
"O=C(NCc1ccc(Cl)cc1Cl)[C@@H]1CCC(=O)N1C(=O)Nc1ccc(Cl)c(Cl)c1 [HEI2328, (S)—N^2-(2,4-Dichlorobenzyl)-N^1-(3,4-dichlorophenyl)-5-oxopyrrolidine-1,2-dicarboxamide]",more healthy and recovered quicker than control mice,recovered their original weight after 15 days,statistically decreased,more efficient than classical P2RX7 antagonists,very low inflammatory index,lost statistically less weight than the control group,17,76,increased,did not modify,–,–,–,–,–,–,–,–,–,–
"O=C(NCc1ccc(Cl)cc1Cl)[C@@H]1CCC(=O)N1C(=O)Nc1ccc(Cl)nc1 [HEI3090, (S)—N^1-(6-Chloropyridin-3-yl)-N^2-(2,4-dichlorobenzyl)-5-oxopyrrolidine-1,2-dicarboxamide]",–,–,–,–,–,–,–,–,–,–,up to 80%,enriched with CD45 positive cells,1 to 4,in favor to effector cells,2,2,potently inhibits tumor growth,drastically reduced,50,unable to detect any modification of immune cells within the spleen
